According to ChEMBL document CHEMBL1143548, “Synthesis and evaluation of potential inhibitors of eIF4E cap binding to 7-methyl GTP” (Bioorg Med Chem Lett, 2005):

biological target: Eukaryotic translation initiation factor 4E (Homo sapiens, UniProt P06730); assay: Inhibitory concentration against 7-methyl-GTP binding to eukaryotic translation initiation factor 4E
Sequence (P06730 whole entry): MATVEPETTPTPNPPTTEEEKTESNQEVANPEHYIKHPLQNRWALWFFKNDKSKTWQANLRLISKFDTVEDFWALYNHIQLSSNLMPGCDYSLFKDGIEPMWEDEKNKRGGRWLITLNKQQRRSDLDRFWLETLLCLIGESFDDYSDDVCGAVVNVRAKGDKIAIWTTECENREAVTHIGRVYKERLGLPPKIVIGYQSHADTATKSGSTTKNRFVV

IC50 [µM] | SMILES
200 | Nc1nc2c(c(=O)[nH]1)[n+](Cc1ccccc1)cn2[C@@H]1O[C@H](CO[PH](=O)[O-])[C@@H](O)[C@H]1O
4 | C[n+]1cn([C@H]2CC(O)[C@@H](COP(=O)(O)OP(=O)([O-])OP(=O)(O)O)O2)c2nc(N)[nH]c(=O)c21 (single isomer, unassigned)
220 | C=CC[n+]1cn([C@@H]2O[C@H](COP(=O)([O-])O)C(O)[C@H]2O)c2nc(N)[nH]c(=O)c21 (single isomer, unassigned)
> 400 | C[n+]1cn([C@@H]2O[C@H](CO)C(O)[C@H]2O)c2nc(N)[nH]c(=O)c21 (single isomer, unassigned)
100 | CC[n+]1cn([C@@H]2O[C@H](COP(=O)([O-])O)C(O)[C@H]2O)c2nc(N)[nH]c(=O)c21 (single isomer, unassigned)
130 | Nc1nc2c(ncn2[C@@H]2O[C@H](CO[PH](=O)O)C(O)[C@H]2O)c(=O)[nH]1 (single isomer, unassigned)

Further lines, the compound ahead of its results:

SMILES | IC50 [µM]
C[n+]1cn([C@@H]2O[C@H](CO)[C@@H](O)[C@H]2O)c2nc(N)nc([S-])c21 | > 400
Cn1cnc2c(c1=O)[n+](C)cn2[C@@H]1O[C@H](CO)[C@@H](O)[C@H]1O | > 400
CNc1nc2c(ncn2[C@@H]2O[C@H](CO)C(O)[C@H]2O)c(=O)[nH]1 (single isomer, unassigned) | > 400
CN(C)c1nc2c(ccn2[C@@H]2O[C@H](CO)C(O)[C@H]2O)c(=O)[nH]1 (single isomer, unassigned) | > 400
Cc1ccc(SNc2nc3c(ncn3[C@@H]3O[C@H](CO)C(O)[C@H]3O)c(=O)[nH]2)cc1 (single isomer, unassigned) | > 400
